We go through 33 compounds from US6759538B2, “Substituted diphenyl heterocycles useful for treating HCV infection” (priority 2001, dated 2004).

SMILES strings stand for the structures. Bounds are passed on as bounds.

The target of the assay is HCV replicon. Description: HCV replicon assay (luciferase). Type of assay: cell-based, Hepatitis C virus (HCV). The settings on record: 5-2 Luc replicon cells, 24 hours with compound, luciferase emission; first symbol of Replicon/Western. An excerpt: In one embodiment, the inhibitory activity of the compounds can be confirmed in a replicon assay that assesses the ability of a test compound to block or inhibit HCV replication in replicon cells. One example of a suitable replicon assay is the liver cell-line Huh 7-based replicon assay described in Lohmann et al., 1999, Science 285:110-113. A specific example of this replicon assay which utilizes luciferase translation is provided in the Examples Section. In one embodiment of this assay, the amount of test compound that yields a 50% reduction in translation as compared to a control cell (IC50) may be determined.
The inhibitory activity of certain exemplary compounds of the invention was confirmed using an HCV replicon assay. The HCV replicon can include such features as the HCV 5′ untranslated region including the HCV IRES, the HCV 3′ untranslated region, selected HCV genes encoding HCV polypeptides, selectable markers, and a reporter gene such as luciferase, GFP, etc. In the assay, actively dividing 5-2 Luc replicon-comprising cells (obtained from Rolf Bartenschlager; see Lohmann et al., 1999, Science 285:110-113) were seeded at a density of between about 5,000 and 7,500 cells/well onto 96 well plates (about 90 μl of cells per well) and incubated at 37° C. and 5% CO2 for 24 hours. Then, the test compound (in a volume of about 10 μl) was added to the wells at various concentrations and the cells were incubated for an additional 24 hours before luciferase assay. The media was aspirated from each well and Bright-Glo (Promega, Madison, Wis.) luciferase assay reagents were added to each well according to the manufacturer's instructions. Briefly, the Bright-Glo reagent was diluted 1:1 with PBS and 100 μl of diluted reagent was added to each well. After 5 min of incubation at room temperature, luciferin emission was quantified with a luminometer. In this assay, the amount of test compound that yielded a 50% reduction in luciferase emission (IC50) was determined.
On to `O=C(Nc1ccc(S(=O)(=O)NN2CCOCC2)c(-c2cc(-c3c(Cl)cccc3Cl)no2)c1)C(Cl)Cl` [Compound 107, 2,2-Dichloro-N-[3-[3-(2,6-dichlorophenyl)-5-isoxazolyl]-4-(N-morpholinosulfamoyl)-phenyl] Acetamide], for which the IC50 is at most 10 µM. Regarding `CCOc1ccccc1-c1cc(-c2cccc(NC(=O)C(Cl)Cl)c2)on1` [Compound 61, 2,2-Dichloro-N-[3-[3-(2-ethoxyphenyl)-5-isoxazolyl]phenyl] Acetamide], the IC50 was at most 10 µM.

Consider `CN(C)c1cc(Cl)c(-c2cc(-c3cccc(NC(=O)C(Cl)Cl)c3)on2)c(Cl)c1` [Compound 65, 2,2-Dichloro-N-[3-[3-(2,6-dichloro-4-dimethylaminophenyl)-5-isoxazolyl]phenyl] Acetamide], for which the IC50 was at most 10 µM. On to `COc1cccc(Cl)c1-c1cc(-c2cccc(NC(=O)C(Cl)Cl)c2)on1` [Compound 81, 2,2-Dichloro-N-[3-[3-(2-chloro-6-methoxyphenyl)-5-isoxazolyl]phenyl] Acetamide], for which the IC50 was at most 10 µM. Take `O=C(Nc1cccc(-c2cc(-c3c(Cl)cccc3C3CC3)no2)c1)C(Cl)Cl` [Compound 79, 2,2-Dichloro-N-[3-[3-(2-chloro-6-cyclopropylphenyl)-5-isoxazolyl]phenyl] Acetamide]: the concentration for half-maximal inhibition (IC50) was at most 10 µM. Under `O=C(Nc1cccc(-c2cc(-c3c(Cl)cc(Cl)cc3OCCN3CCOCC3)no2)c1)C(Cl)Cl` [Compound 143, 2,2-Dichloro-N-[3-[3-[2,4-dichloro-6-(N-morpholino-2-ethyleneoxy)phenyl]-5-isoxazolyl]-phenyl] Acetamide] stands above 10 µM; under `O=C(Nc1cccc(-c2cc(-c3c(Cl)cccc3Cl)no2)c1)C(Br)Br` [Compound 29, 2,2-Dibromo-N-[3-[3-(2,6-dichlorophenyl)-5-isoxazolyl]phenyl] Acetamide], at most 10 µM. `O=C(Nc1cccc(-c2cc(-c3c(Cl)cccc3C3CCCC3)no2)c1)C(Cl)Cl` [Compound 97, 2,2-Dichloro-N-[3-[3-(2-chloro-6-cyclopentylphenyl)-5-isoxazolyl]phenyl] Acetamide]: the IC50 was at most 10 µM. For the compound `CC(C)c1cccc(Cl)c1-c1cc(-c2cccc(NC(=O)C(Cl)Cl)c2)on1` [Compound 39, 2,2-Dichloro-N-[3-[3-(2-chloro-6-isopropylphenyl)-5-isoxazolyl]phenyl] Acetamide], the concentration for half-maximal inhibition (IC50) is at most 10 µM. `O=C(Nc1cccc(-c2cc(-c3c(Cl)ccc(Cl)c3Cl)no2)c1)C(Cl)Cl` [Compound 137, 2,2-Dichloro-N-[3-[3-(2,3,6-trichlorophenyl)-5-isoxazolyl]phenyl] Acetamide]: the 50% inhibitory concentration (IC50) is above 10 µM. As for `O=C(Nc1cccc(-c2cc(-c3c(Cl)cccc3C3CCCCC3)no2)c1)C(Cl)Cl` [Compound 111, 2,2-Dichloro-N-[3-[3-(2-chloro-6-cyclohexylphenyl)-5-isoxazolyl]phenyl] Acetamide], the IC50 was at most 10 µM. Regarding `O=C(Nc1cccc(-c2cc(-c3ccccc3OCc3ccccc3)no2)c1)C(Cl)Cl` [Compound 161, 2,2-Dichloro-N-[3-[3-(2-benzyloxyphenyl)-5-isoxazolyl]phenyl] Acetamide], the IC50 was above 10 µM. As for `Cc1ccc(F)c(-c2cc(-c3cccc(NC(=O)C(Cl)Cl)c3)on2)c1F` [Compound 149, 2,2-Dichloro-N-[3-[3-(2,6-difluoro-3-methylphenyl)-5-isoxazolyl]phenyl] Acetamide], the IC50 was above 10 µM. Consider `O=C(Nc1cccc(-c2cc(-c3c(C4CC4)cccc3C(F)(F)F)no2)c1)C(Cl)Cl` [Compound 89, 2,2-Dichloro-N-[3-[3-(2-cyclopropyl-6-trifluoromethylphenyl)-5-isoxazolyl]phenyl] Acetamide], for which the 50% inhibitory concentration (IC50) is at most 10 µM. Turning to `CN(C)C1CCN(c2cccc(Cl)c2-c2cc(-c3cccc(NC(=O)C(Cl)Cl)c3)on2)C1` (racemic) [Compound 132, (±)-2,2-Dichloro-N-[3-[3-[2-chloro-6-(3-dimethylamino-N-pyrrolidino)phenyl]-5-isoxazolyl]-phenyl] Acetamide], the IC50 is at most 10 µM.

For the compound `O=C(Nc1cc(-c2cc(-c3c(Cl)cccc3Cl)no2)ccc1OCCN1CCOCC1)C(Cl)Cl` [Compound 171, 2,2-Dichloro-N-[3-[3-(2,6-dichlorophenyl)-5-isoxazolyl]-6-(N-morpholino-2-ethyleneoxy)phenyl] Acetamide], the concentration for half-maximal inhibition (IC50) is above 10 µM. On to `O=C(Nc1cccc(-c2cc(-c3cc(C(F)(F)F)ccc3Cl)no2)c1)C(Cl)Cl` [Compound 141, 2,2-Dichloro-N-[3-[3-(2-chloro-5-trifluoromethylphenyl)-5-isoxazolyl]phenyl] Acetamide], for which the concentration for half-maximal inhibition (IC50) is above 10 µM. For `O=C(Nc1cccc(-c2cc(-c3c(Cl)cc(OCCN4CCCCC4)cc3Cl)no2)c1)C(Cl)Cl` [Compound 125, 2,2-Dichloro-N-[3-[3-[2,6-dichloro-4-(N-piperidinylethylenoxy)phenyl]-5-isoxazolyl]-phenyl] Acetamide], the IC50 is at most 10 µM.

Take `O=C(Nc1cccc(-c2cc(-c3ccccc3-c3ccccc3)no2)c1)C(Cl)Cl` [Compound 123, 2,2-Dichloro-N-[3-[3-(2-phenyl)phenyl-5-isoxazolyl]phenyl] Acetamide]: the concentration for half-maximal inhibition (IC50) is at most 10 µM. As for `O=C(Nc1cccc(-c2cc(-c3c(C4CCCC4)cccc3C(F)(F)F)no2)c1)C(Cl)Cl` [Compound 105, 2,2-Dichloro-N-[3-[3-(2-cyclopentyl-6-trifluoromethylphenyl)-5-isoxazolyl]phenyl] Acetamide], the IC50 was at most 10 µM. For the compound `O=C(Nc1cccc(-c2cc(-c3c(Cl)cccc3-n3ccnc3)no2)c1)C(Cl)Cl` [Compound 117, 2,2-Dichloro-N-[3-[3-[2-chloro-6-(N-imidazolyl)phenyl]-5-isoxazolyl]phenyl] Acetamide], the IC50 is at most 10 µM. Turning to `CC(C)c1cccc(C(C)C)c1-c1cc(-c2cccc(NC(=O)C(Cl)Cl)c2)on1` [Compound 121, 2,2-Dichloro-N-[3-[3-(2,6-diisopropylphenyl)-5-isoxazolyl]phenyl] Acetamide], the IC50 is at most 10 µM. As to `O=C(Nc1cccc(-c2noc(-c3c(Cl)cccc3Cl)n2)c1)C(Cl)Cl` [Compound 87, 2,2-Dichloro-N-[3-[5-(2,6-dichlorophenyl)-3-(1,2,4-oxadiazolyl)]phenyl] Acetamide], the half-maximal inhibitory concentration (IC50) is at most 10 µM. Under `Cc1ccc(-c2cc(-c3c(Cl)cccc3Cl)no2)cc1NC(=O)C(Cl)Cl` [Compound 165, 2,2-Dichloro-N-[3-[3-(2,6-dichlorophenyl)-5-isoxazolyl]-6-methylphenyl] Acetamide] stands above 10 µM; under `O=C(Nc1cccc(-c2cc(-c3ccccc3C3CCCC3)no2)c1)C(Cl)Cl` [Compound 129, 2,2-Dichloro-N-[3-[3-(2-cyclopentylphenyl)-5-isoxazolyl]phenyl] Acetamide], at most 10 µM. For `CC(C)c1cccc(C(F)(F)F)c1-c1cc(-c2cccc(NC(=O)C(Cl)Cl)c2)on1` [Compound 93, 2,2-Dichloro-N-[3-[3-(2-isopropyl-6-trifluoromethylphenyl)-5-isoxazolyl]phenyl] Acetamide], the IC50 is at most 10 µM. In the case of `CN(C)CCN(C)c1cccc(Cl)c1-c1cc(-c2cccc(NC(=O)C(Cl)Cl)c2)on1` [Compound 131, 2-Dichloro-N-[3-[3-[2-chloro-6-(N,N-dimethylethylene-N′-methylamino)phenyl]-5-isoxazolyl]-phenyl] Acetamide], the IC50 was at most 10 µM. Under `Cc1c(NC(=O)C(Cl)Cl)cccc1-c1cc(-c2c(Cl)cccc2Cl)no1` [Compound 167, 2,2-Dichloro-N-[3-[3-(2,6-dichlorophenyl)-5-isoxazolyl]-2-methylphenyl] Acetamide] stands above 10 µM; under `O=C(Nc1cccc(-c2cc(-c3c(Cl)cccc3OCCN3CCOCC3)no2)c1)C(Cl)Cl` [Compound 95, 2,2-Dichloro-N-[3-[3-[2-chloro-6-(N-morpholino-2-ethyleneoxy)phenyl]-5-isoxazolyl]-phenyl] Acetamide], at most 10 µM. With `O=C(Nc1cccc(-c2cc(-c3c(F)cccc3I)no2)c1)C(Cl)Cl` [Compound 49, 2,2-Dichloro-N-[3-[3-(2-fluoro-6-iodophenyl)-5-isoxazolyl]phenyl] Acetamide], the half-maximal inhibitory concentration (IC50) was at most 10 µM. Turning to `O=C(Nc1cccc(-c2cc(-c3ccccc3OC(F)F)no2)c1)C(Cl)Cl` [Compound 45, 2,2-Dichloro-N-[3-[3-(2-difluoromethoxyphenyl)-5-isoxazolyl]phenyl] Acetamide], the IC50 was at most 10 µM. Take `O=C(Nc1cccc(-c2cc(-c3c(Cl)cccc3Cl)no2)c1)C(F)F` [Compound 145, 2,2-Difluoro-N-[3-[3-(2,6-dichlorophenyl)-5-isoxazolyl]phenyl] Acetamide]: the IC50 is above 10 µM. Consider `CCCCc1cccc(Cl)c1-c1cc(-c2cccc(NC(=O)C(Cl)Cl)c2)on1` [Compound 103, 2,2-Dichloro-N-[3-[3-(2-chloro-6-n-butylphenyl)-5-isoxazolyl]phenyl] Acetamide], for which the IC50 was at most 10 µM.

The IC50 is the midpoint of a concentration-inhibition curve.
